In US6703362B1, “Random peptides that bind to gastro-intestinal tract (GIT) transport receptors and related methods” (Cytogen Corporation, priority 1997, dated 2004):
Peptide text beside a SMILES is read from it. * marks the point of attachment. Dansyl = CN(C)c1cccc2c(S(=O)(=O)*)cccc12

Test system: P100 membrane fractions derived from Caco-2 cells
Test: Dansylated peptide ELISA: relative binding of PAX2 and HAX42 peptides to P100 (ratio to ZElan021)
Settings: ratio to ZElan021 = 1.00
Description: The peptides and proteins were analyzed by a dansylated peptide ELISA method in which 96 well plates were coated overnight at 4° C. with 100 μl/well coating protein (normally 100 μg/ml P100 membrane fraction) in 0.05M carbonate buffer pH9.6. Nonspecific binding was blocked using 200 μl/well, 2% Marvel/PBS for 2 hours at 37° C. prior to incubation with dansylated peptides. The plates were washed three times with PBS/0.05% Tween 20 and after each subsequent incubation step. […] A buffer blank control was included to ensure that background binding to plastic was not due to the antibodies used in the assay system. […] The plates were then incubated with an anti-mouse X-HRP conjugated antibody (Southern Biotech 1060-05) at a 1:10,000 dilution in blocking solution, 100 μl/well for 1 hour at room temperature. Plates were developed using 75 μl/well Bionostics TMB substrate and incubated for approximately 10 minutes. The developing reaction was stopped using Bionostics Red Stop solution (25 μl/well), and the optical density of the plates was read at 650nm.

[1] = HAX42 peptides, first 50 μg/ml column
[2] = HAX42 peptides, second 50 μg/ml column
[3] = PAX2 peptides, first 20 μg/ml column
[4] = PAX2 peptides, first 50 μg/ml column
[5] = PAX2 peptides, second 50 μg/ml column

| SMILES | Binding value at 20 μg/ml (HAX42 peptides) | Binding value at 50 μg/ml [1] | Binding value at 50 μg/ml [2] | Binding value at 50 μg/ml (Jackson Ab) (PAX2 peptides) | Binding value at 50 μg/ml (Southern Ab) (PAX2 peptides) | Binding value at 20 μg/ml [3] | Binding value at 50 μg/ml [4] | Binding value at 50 μg/ml [5] | Binding value at 20 μg/ml (PAX2 peptides, second 20 μg/ml column) |
| --- | --- | --- | --- | --- | --- | --- | --- | --- | --- |
| CC(C)C[C@H](NC(=O)[C@H](CC(N)=O)NC(=O)[C@@H](N)CCCCNS(=O)(=O)c1cccc2c(N(C)C)cccc12)C(=O)N[C@@H](CCCNC(=N)N)C(=O)N[C@@H](CO)C(=O)N[C@@H](CC(=O)O)C(=O)N[C@@H](CC(N)=O)C(=O)N[C@@H](C)C(=O)N[C@@H](CCCCN)C(=O)N[C@@H](CCC(=O)O)C(=O)N1CCC[C@H]1C(=O)NCC(=O)N[C@@H](CC(=O)O)C(=O)N[C@@H](Cc1ccc(O)cc1)C(=O)N[C@@H](CC(N)=O)C(=O)N[C@@H](CS)C(=O)N[C@@H](CS)C(=O)NCC(=O)N[C@@H](CC(N)=O)C(=O)NCC(=O)N[C@@H](CC(N)=O)C(=O)N[C@@H](CO)C(=O)N[C@H](C(=O)NCC(=O)N[C@@H](CCCNC(=N)N)C(=O)N[C@@H](CCCCN)C(=O)N[C@H](C(=O)N[C@@H](Cc1ccccc1)C(=O)N[C@@H](CC(N)=O)C(=O)N[C@@H](CCCNC(=N)N)C(N)=O)C(C)C)[C@@H](C)O [ZElan071] (H-K(Dansyl)NLRSDNAKEPGDYNCCGNGNSTGRKVFNR-NH2) | 1.22 | 0.89 | 0.75 |  |  |  |  |  |  |
| CC[C@H](C)[C@H](NC(=O)[C@H](C)NC(=O)[C@H](CO)NC(=O)[C@@H]1CCCN1C(=O)[C@H](CCCNC(=N)N)NC(=O)[C@H](CCCNC(=N)N)NC(=O)[C@H](CC(N)=O)NC(=O)[C@H](Cc1ccccc1)NC(=O)[C@@H](NC(=O)[C@H](CCCCN)NC(=O)[C@H](CCCNC(=N)N)NC(=O)CNC(=O)[C@@H](NC(=O)[C@H](CO)NC(=O)[C@H](CC(N)=O)NC(=O)CNC(=O)[C@H](CC(N)=O)NC(=O)CNC(=O)[C@H](CS)NC(=O)[C@H](CS)NC(=O)[C@H](CC(N)=O)NC(=O)[C@H](Cc1ccc(O)cc1)NC(=O)[C@H](CC(=O)O)NC(=O)CNC(=O)[C@@H]1CCCN1C(=O)[C@@H](N)CCCCNS(=O)(=O)c1cccc2c(N(C)C)cccc12)[C@@H](C)O)C(C)C)C(=O)N1CCC[C@H]1C(=O)N[C@H](C(N)=O)[C@@H](C)O [ZElan072] (H-K(Dansyl)PGDYNCCGNGNSTGRKVFNRRPSAIPT-NH2) | 0.83 | 0.61 | 0.88 |  |  |  |  |  |  |
| CC(C)C[C@H](NC(=O)[C@H](CCCNC(=N)N)NC(=O)[C@H](CCCNC(=N)N)NC(=O)[C@H](CC(N)=O)NC(=O)[C@H](Cc1c[nH]cn1)NC(=O)[C@H](CO)NC(=O)[C@H](C)NC(=O)[C@@H](N)CCCCNS(=O)(=O)c1cccc2c(N(C)C)cccc12)C(=O)N[C@@H](CCCNC(=N)N)C(=O)N[C@H](C(=O)N[C@@H](CCCNC(=N)N)C(N)=O)[C@@H](C)O [ZElan073] (H-K(Dansyl)ASHNRRLRTR-NH2) |  |  |  | 0.66 | 0.49 | 0.07 | −0.11 | 0.49 |  |
| CC(C)C[C@H](NC(=O)[C@H](CCCNC(=N)N)NC(=O)[C@H](CCCNC(=N)N)NC(=O)[C@H](CC(N)=O)NC(=O)[C@H](Cc1c[nH]cn1)NC(=O)[C@H](C)NC(=O)[C@H](CO)NC(=O)[C@@H](N)CCCCNS(=O)(=O)c1cccc2c(N(C)C)cccc12)C(=O)N[C@@H](CCCNC(=N)N)C(=O)N[C@H](C(=O)N[C@@H](CCCNC(=N)N)C(N)=O)[C@@H](C)O [ZElan074] (H-K(Dansyl)SAHNRRLRTR-NH2) |  |  |  | 0.71 | 0.48 | 0.06 | 0.82 | 0.52 |  |
| CC(C)C[C@H](NC(=O)[C@H](CCCNC(=N)N)NC(=O)[C@H](CCCNC(=N)N)NC(=O)[C@H](CC(N)=O)NC(=O)[C@H](C)NC(=O)[C@H](CO)NC(=O)[C@H](CO)NC(=O)[C@@H](N)CCCCNS(=O)(=O)c1cccc2c(N(C)C)cccc12)C(=O)N[C@@H](CCCNC(=N)N)C(=O)N[C@H](C(=O)N[C@@H](CCCNC(=N)N)C(N)=O)[C@@H](C)O [ZElan075] (H-K(Dansyl)SSANRRLRTR-NH2) |  |  |  | 0.47 | 0.32 | 0.13 | 0.52 | 0.38 |  |
| CC(C)C[C@H](NC(=O)[C@H](CCCNC(=N)N)NC(=O)[C@H](CCCNC(=N)N)NC(=O)[C@H](C)NC(=O)[C@H](Cc1c[nH]cn1)NC(=O)[C@H](CO)NC(=O)[C@H](CO)NC(=O)[C@@H](N)CCCCNS(=O)(=O)c1cccc2c(N(C)C)cccc12)C(=O)N[C@@H](CCCNC(=N)N)C(=O)N[C@H](C(=O)N[C@@H](CCCNC(=N)N)C(N)=O)[C@@H](C)O [ZElan076] (H-K(Dansyl)SSHARRLRTR-NH2) |  |  |  | 0.60 | 0.42 | 0.08 | 1.00 | 0.41 |  |
| CC(C)C[C@H](NC(=O)[C@H](CCCNC(=N)N)NC(=O)[C@H](C)NC(=O)[C@H](CC(N)=O)NC(=O)[C@H](Cc1c[nH]cn1)NC(=O)[C@H](CO)NC(=O)[C@H](CO)NC(=O)[C@@H](N)CCCCNS(=O)(=O)c1cccc2c(N(C)C)cccc12)C(=O)N[C@@H](CCCNC(=N)N)C(=O)N[C@H](C(=O)N[C@@H](CCCNC(=N)N)C(N)=O)[C@@H](C)O [ZElan077] (H-K(Dansyl)SSHNARLRTR-NH2) |  |  |  | 0.73 | 0.52 | 0.20 | 0.76 | 0.54 |  |
| CC(C)C[C@H](NC(=O)[C@H](C)NC(=O)[C@H](CCCNC(=N)N)NC(=O)[C@H](CC(N)=O)NC(=O)[C@H](Cc1c[nH]cn1)NC(=O)[C@H](CO)NC(=O)[C@H](CO)NC(=O)[C@@H](N)CCCCNS(=O)(=O)c1cccc2c(N(C)C)cccc12)C(=O)N[C@@H](CCCNC(=N)N)C(=O)N[C@H](C(=O)N[C@@H](CCCNC(=N)N)C(N)=O)[C@@H](C)O [ZElan078] (H-K(Dansyl)SSHNRALRTR-NH2) |  |  |  | 0.68 | 0.47 | 0.11 | 0.87 | 0.69 |  |
| C[C@H](NC(=O)[C@H](CCCNC(=N)N)NC(=O)[C@H](CCCNC(=N)N)NC(=O)[C@H](CC(N)=O)NC(=O)[C@H](Cc1c[nH]cn1)NC(=O)[C@H](CO)NC(=O)[C@H](CO)NC(=O)[C@@H](N)CCCCNS(=O)(=O)c1cccc2c(N(C)C)cccc12)C(=O)N[C@@H](CCCNC(=N)N)C(=O)N[C@H](C(=O)N[C@@H](CCCNC(=N)N)C(N)=O)[C@@H](C)O [ZElan079] (H-K(Dansyl)SSHNRRARTR-NH2) |  |  |  | 0.83 | 0.53 | 0.31 | 0.97 | 0.68 |  |
| CC(C)C[C@H](NC(=O)[C@H](CCCNC(=N)N)NC(=O)[C@H](CCCNC(=N)N)NC(=O)[C@H](CC(N)=O)NC(=O)[C@H](Cc1c[nH]cn1)NC(=O)[C@H](CO)NC(=O)[C@H](CO)NC(=O)[C@@H](N)CCCCNS(=O)(=O)c1cccc2c(N(C)C)cccc12)C(=O)N[C@@H](C)C(=O)N[C@H](C(=O)N[C@@H](CCCNC(=N)N)C(N)=O)[C@@H](C)O [ZElan080] (H-K(Dansyl)SSHNRRLATR-NH2) |  |  |  | 0.67 | 0.38 | 0.23 | 0.84 | 0.45 |  |
| CC(C)C[C@H](NC(=O)[C@H](CCCNC(=N)N)NC(=O)[C@H](CCCNC(=N)N)NC(=O)[C@H](CC(N)=O)NC(=O)[C@H](Cc1c[nH]cn1)NC(=O)[C@H](CO)NC(=O)[C@H](CO)NC(=O)[C@@H](N)CCCCNS(=O)(=O)c1cccc2c(N(C)C)cccc12)C(=O)N[C@@H](CCCNC(=N)N)C(=O)N[C@@H](C)C(=O)N[C@@H](CCCNC(=N)N)C(N)=O [ZElan081] (H-K(Dansyl)SSHNRRLRAR-NH2) |  |  |  |  |  | 0.01 | 0.89 | 0.47 |  |
| CC(C)C[C@H](NC(=O)[C@H](CCCNC(=N)N)NC(=O)[C@H](CCCNC(=N)N)NC(=O)[C@H](CC(N)=O)NC(=O)[C@H](Cc1c[nH]cn1)NC(=O)[C@H](CO)NC(=O)[C@H](CO)NC(=O)[C@@H](N)CCCCNS(=O)(=O)c1cccc2c(N(C)C)cccc12)C(=O)N[C@@H](CCCNC(=N)N)C(=O)N[C@H](C(=O)N[C@@H](C)C(N)=O)[C@@H](C)O [ZElan082] (H-K(Dansyl)SSHNRRLRTA-NH2) |  |  |  |  |  | 0.00 | 0.92 | 0.40 |  |
| CC(C)C[C@H](NC(=O)[C@H](CCCNC(=N)N)NC(=O)[C@H](CO)NC(=O)[C@@H](NC(=O)[C@H](CCCCN)NC(=O)[C@H](CC(N)=O)NC(=O)[C@H](CCCNC(=N)N)NC(=O)[C@@H](NC(=O)[C@H](CC(N)=O)NC(=O)[C@H](CCCNC(=N)N)NC(=O)[C@@H](N)CCCCNS(=O)(=O)c1cccc2c(N(C)C)cccc12)[C@@H](C)O)[C@@H](C)O)C(=O)N[C@@H](CO)C(=O)N[C@@H](C)C(=O)N[C@@H](CC(N)=O)C(=O)N1CCC[C@H]1C(=O)N[C@@H](Cc1c[nH]cn1)C(=O)N[C@@H](CCCNC(=N)N)C(=O)N[C@@H](CO)C(=O)N[C@@H](Cc1c[nH]cn1)C(=O)N[C@@H](CCCNC(=N)N)C(N)=O [ZElan084, reference compound] (H-K(Dansyl)RNTRNKTSRLSANPHRSHR-NH2) |  |  |  |  |  | 1.06 | 1.16 | 0.77 | 0.93 |
